Results taken from patent US20180344641A1, “MESOPOROUS SILICA NANOPARTICLES AND SUPPORTED LIPID BI-LAYER NANOPARTICLES FOR BIOMEDICAL APPLICATIONS” (priority 2015, published 2018).

Assays:
[1] = test system: REH+EGFR cells; assay: Cell viability, CellTiter-Glo 2.0 Assay; type: cell-based, human; details: free GEM 0 to 30 uM 1 hour, viability at 24 hours
Description: (§1) Whole human blood was acquired from healthy donors with informed consent and stabilized in K2EDTA tubes (BD Biosciences). hRBCs were purified following reported procedure (Liao et al., 2011), then incubated with either bare mMSNs or protocells (25, 50, 100, 200, and 400 μg/mL) at 37° C. After 3 hours of exposure, samples were centrifuged at 300 g for 3 minutes, then 100 μL of supernatant from each sample was transferred to a 96-well plate. Hemoglobin absorbance was measured using a BioTek microplate reader (Winooski, Vt.) at 541 nm. The percent hemolysis of each sample was quantified using a reported equation (Liao et al., 2011). In addition, we examined the biocompatibility of anti-EGFR targeted protocells in vitro. We incubated about 1.5×10^5 cells/mL of REH and REH+EGFR cell lines with either 12.5, 25, 50, 100, and 200 μg/mL of anti-EGFR targeted protocells in complete medium for 1 hour at 37° C. Cells were washed twice in complete media and transferred to a 96-well plate for 24 hours at 37° C. Cell viability was assessed by CellTiter-Glo® 2.0 Assay as measured by BioTek microplate reader. The cell viability was calculated as a percentage of non-protocell treated sample.
(§2) […] Cell viability was assessed by CellTiter-Glo® 2.0 Assay as measured by BioTek microplate reader. The cell viability was calculated as a percentage of non-protocell treated sample.

[2] = test system: REH cells; assay: Cell viability, CellTiter-Glo 2.0 Assay; type: cell-based, human; details: free GEM 0 to 30 uM 1 hour, viability at 24 hours
Description: as §1, §2

[3] = Federico et al., 2012; cited from earlier work

SMILES: Nc1ccn([C@@H]2O[C@H](CO)[C@@H](O)C2(F)F)c(=O)n1 [GEM, Gemcitabine]
- viability of REH+EGFR cells [1]: Loss in cell viability of REH and REH+EGFR cells
- viability of REH cells [2]: Loss in cell viability of REH and REH+EGFR cells
- plasma half-life [3]: 8 to 17 min
